Earlier results, collected in patent US8288366B2, “Formulation for hair growth” (priority 2006, dated 2012).

Tested on: mice with a mutant hairless gene
Conditions: applied topically

## N[C@@H](Cc1cc(I)c(Oc2ccc(O)c(I)c2)c(I)c1)C(=O)O [T3, triiodothyronine]
  hair growth: stimulate hair growth
